In PubChem BioAssay AID1259407 (Chemical Carcinogenesis Research Information System (CCRIS), 2018):
Active and inactive are the calls of the source. How the calls were made is not given here.

System: CCRIS mutagenicity, Ames/micronucleus/aberration tests
Test: CCRIS mutagenicity studies
[1] = Test System: AMES SALMONELLA TYPHIMURIUM, Strain/Indicator: TA1538, Metabolic Activation: NONE, Method: STANDARD PLATE
[2] = Test System: AMES SALMONELLA TYPHIMURIUM, Strain/Indicator: TA1538, Metabolic Activation: RAT, LIVER, S-9, AROCLOR 1254, Method: STANDARD PLATE
[3] = Test System: AMES SALMONELLA TYPHIMURIUM, Strain/Indicator: TA98, Metabolic Activation: NONE, Method: STANDARD PLATE
[4] = Test System: AMES SALMONELLA TYPHIMURIUM, Strain/Indicator: TA98, Metabolic Activation: RAT, LIVER, S-9, AROCLOR 1254, Method: STANDARD PLATE
[5] = Test System: AMES SALMONELLA TYPHIMURIUM, Strain/Indicator: TA100, Metabolic Activation: NONE, Method: STANDARD PLATE
[6] = Test System: AMES SALMONELLA TYPHIMURIUM, Strain/Indicator: TA98, Metabolic Activation: HAMSTER, LIVER, S-9, AROCLOR 1254, Method: PREINCUBATION
[7] = Test System: AMES SALMONELLA TYPHIMURIUM, Strain/Indicator: TA98, Metabolic Activation: NONE, Method: PREINCUBATION
[8] = Test System: AMES SALMONELLA TYPHIMURIUM, Strain/Indicator: TA98, Metabolic Activation: RAT, LIVER, S-9, AROCLOR 1254, Method: PREINCUBATION
[9] = Test System: AMES SALMONELLA TYPHIMURIUM, Strain/Indicator: TA100, Metabolic Activation: HAMSTER, LIVER, S-9, AROCLOR 1254, Method: PREINCUBATION
[10] = Test System: AMES SALMONELLA TYPHIMURIUM, Strain/Indicator: TA100, Metabolic Activation: NONE, Method: PREINCUBATION
[11] = Test System: AMES SALMONELLA TYPHIMURIUM, Strain/Indicator: TA100, Metabolic Activation: RAT, LIVER, S-9, AROCLOR 1254, Method: PREINCUBATION
[12] = Test System: AMES SALMONELLA TYPHIMURIUM, Strain/Indicator: TA1535, Metabolic Activation: HAMSTER, LIVER, S-9, AROCLOR 1254, Method: PREINCUBATION
[13] = Test System: AMES SALMONELLA TYPHIMURIUM, Strain/Indicator: TA1535, Metabolic Activation: NONE, Method: PREINCUBATION
[14] = Test System: AMES SALMONELLA TYPHIMURIUM, Strain/Indicator: TA1535, Metabolic Activation: RAT, LIVER, S-9, AROCLOR 1254, Method: PREINCUBATION
[15] = Test System: AMES SALMONELLA TYPHIMURIUM, Strain/Indicator: TA1537, Metabolic Activation: HAMSTER, LIVER, S-9, AROCLOR 1254, Method: PREINCUBATION
[16] = Test System: AMES SALMONELLA TYPHIMURIUM, Strain/Indicator: TA1537, Metabolic Activation: NONE, Method: PREINCUBATION
[17] = Test System: AMES SALMONELLA TYPHIMURIUM, Strain/Indicator: TA1537, Metabolic Activation: RAT, LIVER, S-9, AROCLOR 1254, Method: PREINCUBATION

Nc1ccc(-c2ccc(-c3ccc(N)cc3)cc2)cc1
mutagenic call [1]: active; positive | mutagenic call [2]: active; positive | mutagenic call (Test System: CHINESE HAMSTER V-79, Strain/Indicator: V-79/6-THIOGUANINE, Metabolic Activation: NONE, Method: SUSPENSION/PLATE): active; positive | mutagenic call (Test System: CHINESE HAMSTER V-79, Strain/Indicator: V-79/6-THIOGUANINE, Metabolic Activation: RAT, LIVER, S-9, AROCLOR 1254, Method: SUSPENSION/PLATE): inactive; negative | mutagenic call (Test System: CHINESE HAMSTER V-79, Strain/Indicator: V-79/6-THIOGUANINE, Metabolic Activation: RAT, LIVER, S-9, PHENOBARBITAL AND BETA-NAPHTHOFLAVONE, Method: SUSPENSION/PLATE): inactive; negative

Oc1cccc2ccc3[nH]c4ccc5ccccc5c4c3c12
mutagenic call (Test System: AMES SALMONELLA TYPHIMURIUM, Strain/Indicator: TM677, Metabolic Activation: NONE, Method: PREINCUBATION): inactive; negative | mutagenic call (Test System: AMES SALMONELLA TYPHIMURIUM, Strain/Indicator: TM677, Metabolic Activation: RAT, LIVER, S-9, 3-METHYLCHOLANTHRENE (1%), Method: PREINCUBATION): inactive; negative | mutagenic call (Test System: AMES SALMONELLA TYPHIMURIUM, Strain/Indicator: TM677, Metabolic Activation: RAT, LIVER, S-9, 3-METHYLCHOLANTHRENE (10%), Method: PREINCUBATION): inactive; negative | mutagenic call (Test System: AMES SALMONELLA TYPHIMURIUM, Strain/Indicator: TM677, Metabolic Activation: RAT, LIVER, S-9, AROCLOR 1254 (10%), Method: PREINCUBATION): inactive; negative

C/C=C\C1=CC(=O)[C@]23C[C@H]2C(C)(C)O[C@]3(O)C1=O
mutagenic call (Test System: AMES SALMONELLA TYPHIMURIUM, Strain/Indicator: TA97, Metabolic Activation: NONE): inactive; negative | mutagenic call (Test System: AMES SALMONELLA TYPHIMURIUM, Strain/Indicator: TA98, Metabolic Activation: NONE): inactive; negative | mutagenic call (Test System: AMES SALMONELLA TYPHIMURIUM, Strain/Indicator: TA100, Metabolic Activation: NONE): active; positive | mutagenic call (Test System: AMES SALMONELLA TYPHIMURIUM, Strain/Indicator: TA102, Metabolic Activation: NONE): active; positive

C#C[C@]1(O)CC[C@H]2[C@@H]3CCC4=C(CCC(=O)C4)[C@H]3CC[C@@]21C
mutagenic call (End Point: IN VITRO CHROMOSOMAL ABERRATIONS, Test System: HUMAN PERIPHERAL LYMPHOCYTES, Metabolic Activation: NONE): inactive; negative | mutagenic call (End Point: IN VITRO CHROMOSOMAL ABERRATIONS, Test System: HUMAN PERIPHERAL LYMPHOCYTES, Metabolic Activation: RAT, LIVER, S-9, PHENOBARBITONE): active; positive (structural changes) | mutagenic call (Test System: AMES SALMONELLA TYPHIMURIUM, Strain/Indicator: TA98, Metabolic Activation: MOUSE, LIVER, S-9, Method: STANDARD PLATE): inactive; negative | mutagenic call [3]: inactive; negative | mutagenic call [4]: inactive; negative | mutagenic call (Test System: AMES SALMONELLA TYPHIMURIUM, Strain/Indicator: TA100, Metabolic Activation: MOUSE, LIVER, S-9, Method: STANDARD PLATE): inactive; negative | mutagenic call [5]: inactive; negative | mutagenic call (Test System: AMES SALMONELLA TYPHIMURIUM, Strain/Indicator: TA100, Metabolic Activation: RAT, LIVER, S-9, AROCLOR 1254, Method: STANDARD PLATE): inactive; negative | mutagenic call (Test System: AMES SALMONELLA TYPHIMURIUM, Strain/Indicator: TA1535, Metabolic Activation: MOUSE, LIVER, S-9, Method: STANDARD PLATE): inactive; negative | mutagenic call (Test System: AMES SALMONELLA TYPHIMURIUM, Strain/Indicator: TA1535, Metabolic Activation: NONE, Method: STANDARD PLATE): inactive; negative | mutagenic call (Test System: AMES SALMONELLA TYPHIMURIUM, Strain/Indicator: TA1535, Metabolic Activation: RAT, LIVER, S-9, AROCLOR 1254, Method: STANDARD PLATE): inactive; negative | mutagenic call (Test System: AMES SALMONELLA TYPHIMURIUM, Strain/Indicator: TA1537, Metabolic Activation: MOUSE, LIVER, S-9, Method: STANDARD PLATE): inactive; negative | mutagenic call (Test System: AMES SALMONELLA TYPHIMURIUM, Strain/Indicator: TA1537, Metabolic Activation: NONE, Method: STANDARD PLATE): inactive; negative | mutagenic call (Test System: AMES SALMONELLA TYPHIMURIUM, Strain/Indicator: TA1537, Metabolic Activation: RAT, LIVER, S-9, AROCLOR 1254, Method: STANDARD PLATE): inactive; negative | mutagenic call (Test System: AMES SALMONELLA TYPHIMURIUM, Strain/Indicator: TA1538, Metabolic Activation: MOUSE, LIVER, S-9, Method: STANDARD PLATE): inactive; negative | mutagenic call [1]: inactive; negative | mutagenic call [2]: inactive; negative

CC1CCC(C(C)CS)CC1S (stereo not drawn)
mutagenic call [6]: inactive; negative | mutagenic call [7]: inactive; negative | mutagenic call [8]: inactive; negative | mutagenic call [9]: inactive; negative | mutagenic call [10]: inactive; negative | mutagenic call [11]: inactive; negative | mutagenic call [12]: inactive; negative | mutagenic call [13]: inactive; negative | mutagenic call [14]: inactive; negative | mutagenic call [15]: inactive; negative | mutagenic call [16]: inactive; negative | mutagenic call [17]: inactive; negative

c1ccc(Oc2ccccc2)cc1
mutagenic call [6]: inactive; negative | mutagenic call [7]: inactive; negative | mutagenic call [8]: inactive; negative | mutagenic call [9]: inactive; negative | mutagenic call [10]: inactive; negative | mutagenic call [11]: inactive; negative | mutagenic call [12]: inactive; negative | mutagenic call [13]: inactive; negative | mutagenic call [14]: inactive; negative | mutagenic call [15]: inactive; negative | mutagenic call [16]: inactive; negative | mutagenic call [17]: inactive; negative

O=CN(O)c1ccc([N+](=O)[O-])cc1
mutagenic call (Test System: AMES SALMONELLA TYPHIMURIUM, Strain/Indicator: TA98(NR), Metabolic Activation: NONE, Method: STANDARD PLATE): active; positive | mutagenic call (Test System: AMES SALMONELLA TYPHIMURIUM, Strain/Indicator: TA98(NR), Metabolic Activation: RAT, LIVER, S-9, AROCLOR 1254, Method: STANDARD PLATE): active; positive | mutagenic call [3]: active; positive | mutagenic call [4]: active; positive | mutagenic call (Test System: AMES SALMONELLA TYPHIMURIUM, Strain/Indicator: TA1538(NR), Metabolic Activation: NONE, Method: STANDARD PLATE): active; positive | mutagenic call (Test System: AMES SALMONELLA TYPHIMURIUM, Strain/Indicator: TA1538(NR), Metabolic Activation: RAT, LIVER, S-9, AROCLOR 1254, Method: STANDARD PLATE): active; positive | mutagenic call [1]: active; positive | mutagenic call [2]: active; positive

COC(=O)C1CSC2C(Cl)=C(Cl)C(=O)N12 (stereo not drawn)
mutagenic call [5]: active; positive
